Key:
[1] = system: wheat (Triticum aestivum var. PR1404); test: Pot study, phytotoxicity on wheat (Example 2); type: in vivo; settings: 0.5 and 1.0 mg/mL, 7, 14 and 21 days after treatment
Experimental: A pot study is conducted to test the phytotoxicity of thaxtomin A on corn (Zea mays var. Early Sunglow) and wheat (Triticum aestivum var. PR1404). To confirm the activity on broadleaf weeds, pigweed (Amaranthus sp.) is planted in the same pot with either three corn or five wheat seeds, and sprayed simultaneously with the cereal test plants. The less than 3-inch tall plants grown under growth lights (12-h light/12-h dark) at 28° C. are sprayed with thaxtomin A solutions derived from a liquid culture of S. acidiscabies containing 0.5, and 1.0 mg thaxtomin A per mL of solvent (4% ethanol and 0.2% non-ionic surfactant). A solution of 4% ethanol +0.2% non-ionic surfactant without thaxtomin A is used as a control treatment. Each treatment is conducted in three replicates. Treated plants are kept at 28° C. under growth lights and observed at three time points—7, 14 and 21 days after treatment—for visual symptoms of phytotoxicity on corn and wheat and % control of pigweed.

Rice (variety M209) = test: Field study on rice, yield (Example 6); type: in vivo; settings: Thaxtomin A 180 g/acre
Experimental: The efficacy of thaxtomin A derived from a liquid culture of S. acidiscabies is tested in a field study on rice using 4.9 sq-ft plots surrounded by a metal ring. Treatments with either thaxtomin A or thaxtomin A in combination with lemongrass oil (formulated as GreenMatch EX) or cyhalofop (formulated as Clincher CA) were done using a hand-held sprayer with a water volume corresponding to 57 gallons per acre. Rice (variety M209) was grown until maturity and harvested by hand for yield and weed count assessment. Results of yield (kg/ha), and numbers of redstem, small-flower umbrella sedge, and sprangletop in each plot are presented in Table 3 below.

redstem; Ammania spp. = test: Greenhouse study thaxtomin A / sarmentine (Example 9); type: in vivo; settings: 25 days after treatment
Experimental: (§1) A strain of S. acidiscabies was grown in oat bran broth for 5 days (25° C., 200 rpm). The whole cell broth was extracted using XAD resin, and the dried crude extract was resuspended in 4% ethanol and 0.2% non-ionic surfactant at a concentration of 10 mg/mL. The diluted extracts containing 0.2 and 0.4 mg thaxtomin A per mL were tested on three weed species (redstem; Ammania spp., smallflower umbrella sedge; Cyperus difformis and sprangletop: Leptochloa uninervia). Other treatments included sarmentine at 2.5 and 5.0 mg/mL, and a combination treatment containing 0.2 mg thaxtomin A and 2.5 mg sarmentine per mL. Each treatment was applied in three replicates. Treated plants were kept in a greenhouse under 12 h light/12 h dark conditions.

[2] = system: smallflower umbrella sedge; Cyperus difformis; test: as above; type: in vivo; settings: Thaxtomin A 0.2 mg/mL; 25 days after treatment
Experimental: as §1

[3] = system: sprangletop: Leptochloa uninervia; test: as above; type: in vivo; settings: Thaxtomin A 0.2 mg/mL; 25 days after treatment
Experimental: as §1

[4] = system: Arrowhead (Sagittaria montevidensis); test: Post-emergence test of MBI-005, field (Example 13); type: in vivo
Experimental: (§2) In field testing, field soil containing weeds at the 1-5 leaf stage were treated with 38.2 L MBI-005/ha at a spray volume of 374 L/ha. Treatments, including water as the negative control and WeedBGon or Preen Broadleaf as the positive control, were replicated four times and applied twice at a four week interval. The positive control on Late watergrass, Ricefield Bulrush, Smallflower sedge and Arrowhead was an herbicide containing as active ingredient 2,4-D and an organosilicone surfactant was added to MBI-005. Treatments were assessed for % control and % ground cover.

[5] = system: Bermuda buttercup (Oxalis pes-caprae); test: Post-emergence test of MBI-005, field (Example 13); type: in vivo
Experimental: as §2

Bluegrass (Poa annua) = test: Post-emergence test of MBI-005, field (Example 13); type: in vivo
Experimental: as §2

[6] = system: Clover (Trifolium hirtum); test: Post-emergence test of MBI-005, field (Example 13); type: in vivo
Experimental: as §2

[7] = system: Common chickweed (Stellaria media); test: Post-emergence test of MBI-005, field (Example 13); type: in vivo
Experimental: as §2

[8] = system: Common groundsel (Senecio vulgaris); test: Post-emergence test of MBI-005, field (Example 13); type: in vivo
Experimental: as §2

[9] = system: Common yellow oxalis (Oxalis pes-caprae); test: Post-emergence test of MBI-005, field (Example 13); type: in vivo
Experimental: as §2

Eclipta (Eclipta alba) = test: Post-emergence test of MBI-005, field (Example 13); type: in vivo
Experimental: as §2

[10] = system: Flexuous bittercress (Cardamine flexuosa); test: Post-emergence test of MBI-005, field (Example 13); type: in vivo
Experimental: as §2

[11] = system: Hairy bittercress (Cardamine hirsuta); test: Post-emergence test of MBI-005, field (Example 13); type: in vivo
Experimental: as §2

[12] = system: Hairy galinsoga (Galinsoga ciliata); test: Post-emergence test of MBI-005, field (Example 13); type: in vivo
Experimental: as §2

[13] = system: Henbit (Lamimum amplexicaule); test: Post-emergence test of MBI-005, field (Example 13); type: in vivo
Experimental: as §2

[14] = system: Late watergrass (Echinochloa phyllopogon); test: Post-emergence test of MBI-005, field (Example 13); type: in vivo
Experimental: as §2

[15] = system: Marsh watercress (Rorippa islandica); test: Post-emergence test of MBI-005, field (Example 13); type: in vivo
Experimental: as §2

[16] = system: Nightshade, Eastern Black (Solanum ptychanthum); test: Post-emergence test of MBI-005, field (Example 13); type: in vivo
Experimental: as §2

[17] = system: Ricefield bullrush (Scirpus mucronatus); test: Post-emergence test of MBI-005, field (Example 13); type: in vivo
Experimental: as §2

[18] = system: Shepherd's purse (Capsella bursa-pastoris); test: Post-emergence test of MBI-005, field (Example 13); type: in vivo
Experimental: as §2

[19] = system: Smallflower (Cyperus difformis); test: Post-emergence test of MBI-005, field (Example 13); type: in vivo; settings: Smallflower (sedge)
Experimental: as §2

[20] = system: Velvetleaf (Abutilon theophrasti); test: Post-emergence test of MBI-005, field (Example 13); type: in vivo
Experimental: as §2

[21] = system: small flower umbrella sedge; test: Post-emergent MBI-005 + rice herbicides on smallflower umbrella sedge (Example 19); type: in vivo; settings: 14 days
Experimental: Twenty seedlings in 2.5 cm square pots containing plant growth mix were sprayed to full coverage using a hand sprayer. Negative controls were sprayed with water. Pots were randomly placed in a growth room at 25° C. and 50% RH, and watered as necessary. Treatments were replicated three times and evaluated at 7 and 14 days for visual % damage, with 0% indicating no damage and 100% indicating plant death.
Synergy was calculated as the ratio of observed (E) to expected (E/Ee) percent control using Colby's formula.

[22] = system: mono and dicotyledonous seedlings; settings: cited from earlier work

For `CN1C(=O)[C@](O)(Cc2cccc(O)c2)N(C)C(=O)[C@@H]1Cc1c[nH]c2cccc([N+](=O)[O-])c12` [thaxtomin A], the symptoms of phytotoxicity [1] was “no symptoms of phytotoxicity are observed”, the “Yield (kg/ha)” value (Rice (variety M209); listed as Thaxtomin A) was 7876b kg/ha and the “Yield (kg/ha)” value (Rice (variety M209); listed as thaxtomin) was “no effect”. For the same compound, the “Control of redstem (%)” value (redstem; Ammania spp.; Thaxtomin A 0.2 mg/mL) was 5.0b %, the “Control of redstem (%)” value (redstem; Ammania spp.; Thaxtomin A 0.4 mg/mL, *stunted) was 11.7c* % and the “Control of sedge (%)” value [2] was 48.3b %. The “Control of sprangletop (%)” value [3] was 8.3ab %, the “Rating at 1 mg/ml (Post-Emergence % control)” value [4] was “++++ (91-100)” and the “Rating at 1 mg/ml (Post-Emergence % control)” value [5] was “++++ (91-100)”. For the same compound, the “Rating at 1 mg/ml (Post-Emergence % control)” value (Bluegrass (Poa annua)) was “++ (51-80)”, the “Rating at 1 mg/ml (Post-Emergence % control)” value [6] was “++ (51-80)” and the “Rating at 1 mg/ml (Post-Emergence % control)” value [7] was “++ (51-80)”. For the same compound, the “Rating at 1 mg/ml (Post-Emergence % control)” value [8] was “++++ (91-100)”, the “Rating at 1 mg/ml (Post-Emergence % control)” value [9] was “++++ (91-100)” and the “Rating at 1 mg/ml (Post-Emergence % control)” value (Eclipta (Eclipta alba)) was “++ (51-80)”. The “Rating at 1 mg/ml (Post-Emergence % control)” value [10] was “++ (51-80)”, the “Rating at 1 mg/ml (Post-Emergence % control)” value [11] was “++ (51-80)” and the “Rating at 1 mg/ml (Post-Emergence % control)” value [12] was “+++ (81-90)”. For the same compound, the “Rating at 1 mg/ml (Post-Emergence % control)” value [13] was “++++ (91-100)”, the “Rating at 1 mg/ml (Post-Emergence % control)” value [14] was “+++ (81-90)” and the “Rating at 1 mg/ml (Post-Emergence % control)” value [15] was “++ (51-80)”. For the same compound, the “Rating at 1 mg/ml (Post-Emergence % control)” value [16] was “++ (51-80)”, the “Rating at 1 mg/ml (Post-Emergence % control)” value [17] was “++++ (91-100)” and the “Rating at 1 mg/ml (Post-Emergence % control)” value [18] was “++++ (91-100)”. The “Rating at 1 mg/ml (Post-Emergence % control)” value [19] was “++++ (91-100)”, the “Rating at 1 mg/ml (Post-Emergence % control)” value [20] was “++ (51-80)” and the “% Control MBI-005” value ([21]; MBI-005 0.5% of the label rate (Bispyribac-sodium line)) was 3.3%. For the same compound, the “% Control MBI-005” value ([21]; MBI-005 2.0% of the label rate (Penoxsulam line)) was 20.0%, the “% Control MBI-005” value ([21]; MBI-005 2.0% of the label rate (Propanil line)) was 20.0% and the “% Control MBI-005” value ([21]; MBI-005 2.0% of the label rate (Thiobencarb line)) was 20.0%. The “concentration causing cell swelling, necrosis and growth inhibition” value [22] was “less than 1 uM”.
